Experiment [1] deals with phenylbenzoquinone (PBQ)-induced writhing in mice. The experiment can be described thus: Writhing Assay (PBQ-induced writhing in mice, analgesic activity). It is filed as in vivo, mouse (Charles River male albino mice). To be noted: 30 mpk, i.g., 30 min before PBQ i.p., fraction of mice. An excerpt: The Writhing Assay is one of the most widely-used experimental procedures for measuring the analgesic activity of different narcotic and nonnarcotic analgesic agents, and involves the continuous, chemically-induced pain of visceral origin to an animal, such as a mouse or rat. [Gyires et al., Arch. int. Pharmacodyn, 267, 131-140 (1984); C. Vander Wende et al., Fed. Proc., 15, 494 (1956); Koster et al., Fed. Proc., 18, 412 (1959); and Witken et al., J. Pharmacol. exp. Ther., 133, 400-408 (1961).] Chemicals which may be used to induce this pain include phenylbenzoquinone (PBQ) and acetic acid. As a result of the chemical irritation to the animal, a characteristic stretching and writhing of the animal (dorsiflexion of the animal's back, extension of its hindlimbs and the strong contraction of its abdominal musculature) will generally occur. […] Drugs which reduce the number of writhes of the animal appear to restore the normal nociceptive threshold of the animal.
Charles River male albino mice, weighing 20 to 30 grams, were used in this assay.
Thirty minutes after intragastric administration to ten mice of 30 mg per kilogram of body weight of a compound of the present invention ("test compound"), […] per 10 g of body weight of a 0.025% w/v solution of PBQ was injected intraperitoneally into each mouse. Ten mice which were given saline in place of a test compound of the invention were used as a control group.
Five minutes later, each mouse was individually placed into a glass beaker for observation, and the number of writhes occurring during the following ten-minute period was counted.
A test compound was considered to have produced analgesia in a mouse if, in accordance with the conditions set forth above, and under the test criteria employed for this assay, after the administration of 30 mg per kilogram of body weight of a compound of the present invention to the mouse, the number of writhes elicited by a mouse injected with PBQ was equal to, or less than, one-half the median number of writhes recorded for the saline-treated control group of mice that day, as described by Taber in "Predictive Value of Analgesic Assays in Mice and Rats," Advances in Biochemical Psychopharmacology, 8, 191 (1974).
The results for the particular compounds of the present invention analyzed in this assay, and discussed in the examples identified below which correspond thereto, are presented in Table 1 hereinbelow as fractions under the heading "WRITHING ASSAY." The fractions indicate the number of mice out of eight or ten in which a test compound produced analgesia.
The standard initial screening dose of a test compound employed in this assay was 30 mpk […]. Generally, if this initial screening dose of the test compound produced analgesia in seven out of ten mice, then the effect of additional doses of the test compound on the writhing response was evaluated, and then the ED50 dose was generally calculated. (The slopes of the dose-response curves for all test compounds analyzed were compared as described by Tallarida and Murray, Manual of Pharmacologic Calculations, Page 11 (Springer Verlag, New York, 1981)).
All ED50 doses calculated are also presented in Table 1 hereinbelow under the heading "WRITHING ASSAY," but as whole numbers.
For orientation: An intraperitoneal irritant provokes the stretching counted in writhing tests.

The subject of experiment [2] is prostaglandin E2-induced contractions of guinea pig ileum. As to the kind of experiment: Prostaglandin (PGE) Antagonism Assay (inhibition of prostaglandin E2-induced contractions of segments of guinea pig ileum). To be noted: test compound 3 × 10^-6 M, 30 min incubation; dose ratio of PGE2 EC50 values; average where more than one determined. As to the method:
(b) Prostaglandin (PGE) Antagonism Assay
In order to determine the effectiveness of several of the compounds of the present invention ("test compounds") as prostaglandin E2 antagonists,a prostaglandin antagonism assay was conducted, as described below, to determine the ability of these compounds to inhibit prostaglandin E2 -induced contractions of segments of guinea pig ileum.
Male albino guinea pigs weighing 200 to 500 grams were sacrificed by cervical dislocation. The ilea were then quickly removed from the guinea pigs and placed in a modified Tyrode solution, a solution which is known to those skilled in the art, containing one-half of the usual amount of magnesium ions.
Segments of ileum about 2 cm long were then cut and mounted in a 10 mL tissue bath containing the modified Tyrode solution. The solution was maintained at 37° C. and aerated with a gaseous mixture of 95% oxygen and 5% carbon dioxide. Data for a control prostaglandin E2 dose response curve plotting concentration of prostaglandin E2 versus the intensity of contractions, detected isotonically, was then obtained by experimentally adjusting the dose of the prostaglandin E2 being injected into the tissue bath, in a manner known by those of skill in the art.
Solutions or suspensions containing an initial concentration (3 micromolar) of a test compound in modified Tyrode solution ("test solutions/suspensions") were then separately substituted for the control bath solution. Each test solution/suspension was then kept in constant contact with the ileum tissue, except for brief periods to drain the bath in preparation for rinsing with fresh test solution/suspension. A second prostaglandin E2 dose response curve was then generated for prostaglandin E2 in the presence of a test compound.
A control dose response curve is produced in isolated segments of guinea pig ileum mounted in an automated apparatus with six concentrations of prostaglandin E2. A solution or suspension of test compound is substituted for the control bathing solution and is incubated for thirty minutes. An additional prostaglandin E2 dose response curve is then performed in the presence of the test compound. A dose ratio is calculated from the EC50 values obtained from duplicate replications on each concentration of the test compound.
A dose ratio of EC50 doses was calculated from the results of each test in a manner known by those of skill in the art, and described above.
The dose ratios reported in Table 1 represent an average of multiple dose ratios for those compounds for which more than one dose ratio was determined. The compounds of the present invention which were tested in this assay, and for which results are presented in Table 1, correspond to the particular examples specified in Table 1.
The pA2 value (a statistical constant which is a common measure of expressing the potency of a particular drug as a competitive antagonist), rather than the dose ratio, was calculated for the test compound shown and described in Example 6 by schild plot calculations, as described by H. O. Schild, "pA, A New Scale for the Measurement of Drug Antagonism," Br. J. Pharmacol, 2, 189 (1947), and is reported in Table 1.

For `O=C1O[C@@H](c2ccncc2)[C@H]2c3ccccc3Oc3ccc(Cl)cc3N12` (relative stereo) [Compound 7, cis-6-chloro-1,13b-dihydro-1-(4-pyridyl)-3H-dibenz[b,f]oxazolo-[3,4-d][1,4]oxazepin-3-one], in experiment [1], the “Writhing assay: number of mice out of eight or ten in which test compound produced analgesia” value (“Writhing assay: number” below) is on record as 9/10. Moreover, the “PGE2 antagonism in guinea pig ileum: Dose Ratio at 3 × 10^-6 M” value (“PGE2 antagonism … Dose Ratio at 3 × 10^-6 M” for short) in experiment [2] was determined as 1.5.

In the case of `O=C1O[C@@H](c2ccncc2)[C@H]2c3ccccc3Oc3ccc(Cl)cc3N12` [Compound 6b, (-)-trans-6-chloro-1,13b-dihydro-1-(4-pyridyl)-3H-dibenz[b,f]oxazolo[3,4-d][1,4]oxazepin-3-one], in experiment [1] (30 mg/kg), the “Writhing assay: number” value is on record as 6/10. Besides, in experiment [2], the “PGE2 antagonism … Dose Ratio at 3 × 10^-6 M” value worked out at 2.7.

With `O=C1OC(c2ccco2)c2c(Cl)ccc3c2N1Cc1ccccc1O3` (stereo not drawn) [Compound 13, 4-chloro-3-(-2-furyl)-1H,3H,12H-[3,1]-benzoxazino-[8,1-b,c][1,4]benzoxazepin-1-one], in experiment [2], the “PGE2 antagonism … Dose Ratio at 3 × 10^-6 M” value worked out at 4.4.

As for `O=C1OC(c2ccncc2)c2c(Cl)ccc3c2N1Cc1ccccc1O3` (single isomer, unassigned; (+)) [Compound 5a, (+)-4-chloro-3-(4-pyridyl)-1H,3H,12H-[3,1]benzoxazino-[8,1-b,c][1,4]benzoxazepin-1-one], the “Writhing assay: number” value in experiment [1] (30 mg/kg) is 8/10. Also, in experiment [2], the “PGE2 antagonism … Dose Ratio at 3 × 10^-6 M” value is 5.2.

Regarding `O=C1OC(c2ccncc2)c2c(Cl)ccc3c2N1Cc1ccccc1O3` (single isomer, unassigned; (-)) [Compound 5b, (-)-4-chloro-3-(4-pyridyl)-1H,3H,12H-[3,1]-benzoxazino[8,1-b,c][1, 4]benzoxazepin-1-one], in experiment [1] (30 mg/kg), the “Writhing assay: number” value was 4/10. Further, the “PGE2 antagonism … Dose Ratio at 3 × 10^-6 M” value in experiment [2] came to 80.5.

As for `O=C1O[C@@H](c2ccccn2)[C@@H]2c3ccccc3Oc3ccc(Cl)cc3N12` (relative stereo) [Compound 11, cis-6-chloro-1,13b-dihydro-1-(2-pyridyl)-3H-dibenz[b,f]oxazolo[3,4-d][1,4]-oxazepin-3-one], the “Writhing assay: number” value in experiment [1] is on record as 2/8. Further, in experiment [2], the “PGE2 antagonism … Dose Ratio at 3 × 10^-6 M” value came to 8.6.

On to `Cn1c(-c2ccccc2)c2n(c1=O)-c1cc(Cl)ccc1Oc1ccccc1-2` [Compound 31], for which the “PGE2 antagonism … Dose Ratio at 3 × 10^-6 M” value in experiment [2] stood at 1.4.

As for `COC(=O)c1ccc([C@@H]2OC(=O)N3c4cc(Cl)ccc4Oc4ccccc4[C@@H]23)cc1` (relative stereo) [Compound 17, 6-chloro-1,13b-dihydro-1-(4-carboxymethylphenyl)-3H-dibenz[b,f]-oxazolo[3,4-d][1,4]-oxazepin-3-one], the “PGE2 antagonism … Dose Ratio at 3 × 10^-6 M” value in experiment [2] is 2.3.

In the case of `O=C1C2c3ccccc3Oc3ccc(Cl)cc3N2C(=O)N1Cc1ccccc1` (stereo not drawn) [Compound 34, 6-Chloro-2-phenylmethyl-2H,13bH-dibenz[b,f]-imidazo-[1,5-d][1,4]oxazepin-1,3-dione], the “PGE2 antagonism … Dose Ratio at 3 × 10^-6 M” value in experiment [2] stood at 3.6.

Consider `O=C1N2C=Cc3ccccc3C2C2c3ccccc3Oc3ccc(Cl)cc3N12` (single isomer, unassigned) [Compound 28, 12-Chloro-15H-benz[b]isoquino[2',1':3,4]imidazo-1,5-d][benzoxazepin-15-one], for which the “PGE2 antagonism … Dose Ratio at 3 × 10^-6 M” value in experiment [2] came to 3.5.

Regarding `O=C1OC2(CCC2)C2c3ccccc3Oc3ccc(Cl)cc3N12` (stereo not drawn) [Compound 21, 6-Chloro-1,13b-dihydro-3H-spiro[dibenz[b,f]oxazolo-[3,4-d][1,4]oxazepin-1,1'-cyclobutan]-3-one], the “PGE2 antagonism … Dose Ratio at 3 × 10^-6 M” value in experiment [2] is 0.9.

For the compound `O=C1C2c3ccccc3Oc3ccc(Cl)cc3N2C(=O)N1c1ccccc1` (stereo not drawn) [Compound 33, 6-Chloro-2-phenyl-2,13bH-dibenz[b,f]imidazo-[1,5-d][1,4]oxazepin-1,3-dione], the “PGE2 antagonism … Dose Ratio at 3 × 10^-6 M” value in experiment [2] was 4.3.

For `O=C1N2CCc3ccccc3C2C2c3ccccc3Oc3ccc(Cl)cc3N12` (stereo not drawn) [Compound 29, 12-Chloro-17,18-dihydro-15H-benz[b]isoquino[2',1';3,4]-imidazo[1,5-d][1,4]benzoxazepin-15-one], in experiment [2], the “PGE2 antagonism … Dose Ratio at 3 × 10^-6 M” value was 3.8.

As to `O=C1OC2(CCCC2)C2c3ccccc3Oc3ccc(Cl)cc3N12` (stereo not drawn) [Compound 22, 6-chloro-1,13H-spiro[dibenz[b,f]-oxazolo3,4-d][1,4]oxazepin-1,1'-cyclopentane-3-one], the “PGE2 antagonism … Dose Ratio at 3 × 10^-6 M” value in experiment [2] was 2.5.

In the case of `O=C1OC(c2cccnc2)C2c3ccccc3Oc3ccc(Cl)cc3N12` (mixture of isomers) [Compounds 9a and 9b (Mixture), 6-chloro-1,13b-dihydro-1-(3-pyridyl)-3H-dibenz[b,f]-oxazolo[3,4-d][1,4]oxazepin-3-one], the “PGE2 antagonism … Dose Ratio at 3 × 10^-6 M” value in experiment [2] is 1.5.

Regarding `O=C1OC(c2cccnc2)c2c(Cl)ccc3c2N1Cc1ccccc1O3` (stereo not drawn) [Compound 8, 4-chloro-3-(3-pyridyl)-1H,3H,12H-[3,1]-benzoxazino-[8,1-b,c][1,4]benzoxazepin-1-one], the “Writhing assay: number” value in experiment [1] was 5/10.

Turning to `O=c1[nH]c(-c2ccccc2)c2n1-c1cc(Cl)ccc1Oc1ccccc1-2` [Compound 30, 6-Chloro-1-phenyl-2H-dibenz[b,f]imidazo[1,5-d]-[1,4]oxazepin-3-one], in experiment [2], the “PGE2 antagonism … Dose Ratio at 3 × 10^-6 M” value worked out at 2.1.

On to `O=C1OC(c2ccsc2)C2c3ccccc3Oc3ccc(Cl)cc3N12` (stereo not drawn) [Compound 12, 6-chloro-1,13b-dihydro-1-(3-thienyl)-3H-dibenz[b,f]oxazolo[3,4-d][1,4]-oxazepin-3-one], for which the “PGE2 antagonism … Dose Ratio at 3 × 10^-6 M” value in experiment [2] is 1.9.

In the case of `O=C(O)Cc1ccc(C2OC(=O)N3c4cc(Cl)ccc4Oc4ccccc4C23)cc1` (stereo not drawn) [Compound 16, 6-chloro-1,13b-dihydro-1-(-4-carboxymethlyphenyl)-3H-dibenz[b,f]-oxazolo-[3,4-d][1,4]oxazepin-3-one], in experiment [2], the “PGE2 antagonism … Dose Ratio at 3 × 10^-6 M” value is 2.4.
